In US20240391875A1, “ISOQUINOLINONES AND QUINOLINONES AS MODULATORS OF POLRMT” (Pretzel Therapeutics, Inc., priority 2021, published 2024) one finds IC50 data, which are given here for 28 molecules.

SMILES strings stand for the structures.

One may read the IC50 as the concentration that gives 50% inhibition. The low end stands for inhibition by little substance, the high end for a need for much substance.

POLRMT, sequence (O00411 42-1230): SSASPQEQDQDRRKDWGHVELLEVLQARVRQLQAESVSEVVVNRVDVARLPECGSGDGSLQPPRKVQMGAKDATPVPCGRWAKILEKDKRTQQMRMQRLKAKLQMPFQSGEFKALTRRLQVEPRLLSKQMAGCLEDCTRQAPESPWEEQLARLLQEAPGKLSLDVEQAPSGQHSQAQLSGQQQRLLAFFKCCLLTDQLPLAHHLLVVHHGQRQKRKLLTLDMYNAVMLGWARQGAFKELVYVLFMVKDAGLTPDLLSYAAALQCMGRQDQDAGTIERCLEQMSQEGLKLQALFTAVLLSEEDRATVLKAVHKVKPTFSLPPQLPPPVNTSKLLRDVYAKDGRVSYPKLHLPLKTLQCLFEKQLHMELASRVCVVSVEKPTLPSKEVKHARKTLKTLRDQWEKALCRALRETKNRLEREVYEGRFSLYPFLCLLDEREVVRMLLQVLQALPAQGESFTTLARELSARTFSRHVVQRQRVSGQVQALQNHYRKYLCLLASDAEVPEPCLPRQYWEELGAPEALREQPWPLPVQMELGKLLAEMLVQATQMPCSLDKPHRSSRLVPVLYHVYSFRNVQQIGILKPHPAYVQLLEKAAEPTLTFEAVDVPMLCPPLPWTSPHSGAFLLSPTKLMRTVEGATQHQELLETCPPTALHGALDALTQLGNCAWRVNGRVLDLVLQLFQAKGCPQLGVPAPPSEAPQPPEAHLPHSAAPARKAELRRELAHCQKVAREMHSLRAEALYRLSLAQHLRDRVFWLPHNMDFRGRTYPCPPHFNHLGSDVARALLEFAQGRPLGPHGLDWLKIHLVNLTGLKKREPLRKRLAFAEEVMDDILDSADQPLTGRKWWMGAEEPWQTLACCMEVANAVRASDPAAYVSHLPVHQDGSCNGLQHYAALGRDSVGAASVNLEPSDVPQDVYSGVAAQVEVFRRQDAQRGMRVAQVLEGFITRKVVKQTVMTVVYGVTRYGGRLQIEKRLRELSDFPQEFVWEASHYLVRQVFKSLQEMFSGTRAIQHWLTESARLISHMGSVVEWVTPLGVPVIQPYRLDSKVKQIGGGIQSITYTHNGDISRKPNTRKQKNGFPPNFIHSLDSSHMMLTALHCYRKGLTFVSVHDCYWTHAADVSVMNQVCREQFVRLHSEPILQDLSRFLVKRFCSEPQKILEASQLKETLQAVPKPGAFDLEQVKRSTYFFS

The assay addresses POLRMT (Homo sapiens, UniProt O00411). Nature of the assay: homogeneous TR-FRET assay of mitochondrial transcription (inhibition of POLRMT). It counts as biochemical. The settings on record: isoquinolinone compounds (Table 1). The method, then: The inhibitory activity of the compounds of the present invention against POLRMT were determined by assays based on Bergbrede, T., et al., “An adaptable high-throughput technology enabling the identification of specific transcription modulators,” SLAC Discov., 22, 378-386 (2017).
The ability of some compounds of the present invention to inhibit POLRMT were determined in a homogeneous TR-FRET Assay using high-throughput screening in a 384-well plate format. This method is used to monitor the activity of mitochondrial transcription through measurement of its product, a 407 bp long RNA transcript. Detection of the product is facilitated by hybridization of two DNA-oligonucleotide probes to specific and adjacent sequences within the RNA product sequence. Upon annealing of the probes, two fluorophores are coupled directly to an acceptor nucleotide probe (ATTO647, 5′), or introduced via a coupled streptavidin with a biotinylated donor nucleotide probe (Europium cryptate) that is brought into sufficient proximity to serve as a fluorescence-donor-acceptor pair. Thus, a FRET signal at 665 nm is generated upon excitation at 340 nm.
Proteins used as transcription factors (POLRMT: NP_005026.3, TFAM: NP_003192.1, TFB2M: NP_071761.1) are diluted from their stocks to working concentrations of 1 μM, 20 μM and 4 μM respectively, in a dilution buffer containing 20 mM Tris-HCl (pH 8.0), 200 mM NaCl, 10% (v/v) glycerol, 1 mM Dithiothreitol (DTT), 0.5 mM EDTA.
DNA template is a pUC18 plasmid with the mitochondrial light strand promotor sequence (1-477) cloned between HindIII and BamHI sites. The DNA template is restriction linearized proximal to the promotor 3′-end (pUC-LSP).
The reaction mixture (10 uL) containing 7.5 nM POLRMT, 15 nM of TFB2M, 30 nM of TFAM, 0.5 nM of DNA template and 500 μM nucleotide triphosphate mix (NTPs) in a reaction buffer (containing 10 mM Tris-HCl (pH 7.5), 10 mM MgCl2, 40 mM NaCl, 10 mM DTT, 0.005% (w/v) Tween-20, 160 units/ml Rnase inhibitor and 0.1 mg/mL BSA) are dispensed to compounds in microplates, using a Thermo Multidrop® dispenser, and incubated at 37° C. in a VWR INCU-Line incubator for 60 minutes after mixing. No nucleotide triphosphate mix is added to negative control samples. Microplates with compounds to be tested in the assay are prepared from 10 mM compound stocks in 100% DMSO, equal amounts of DMSO without any compound are added to positive control and negative control samples.
During the incubation, a mix of the detection reagents is prepared in a buffer such that the enzymatic reaction is terminated due to chelating of Mg-ions and increased ionic strength, containing 50 mM Tris-HCl (pH 7.5), 700 mM NaCl, 20 mM EDTA, and 0.010% (w/v) Tween-20. Europium-streptavidin is pre-incubated with a 200-fold molar excess of a random sequence oligonucleotide to block unspecific binding of oligo, for two hours at ambient temperature in the dark. Afterwards, the blocked Europium-streptavidin is kept on ice until use.
At the end of the enzymatic reaction time, 5 μL detection oligo mix in the detection buffer is added, and assay plates are mixed and kept at ambient temperature for one hour, protected from light. The concentration of the Acceptor nucleotide oligo (e.g., ATTO647N-5′-[…]-3′) and Donor nucleotide oligo (e.g., bio-5′-AACACATCTCT(-bio)GCCAAACCCCA-bio-3′) in each assay well is 1 nM, and 3 nM, respectively.
After incubation with oligo mix, 5 μL of pre-blocked Europium-streptavidin reagent is dispensed to each assay well, assay plates are again mixed and kept at ambient temperature for one hour, protected from light.
The generated signal is measured with BMG Pherastar microtiter plate reader with a TRF light unit, using excitation at 340 nm, an integration time of 200 μs, and a delay time of 100 μs, before detection at 620 nm and 665 nm. The ratio of donor- and acceptor-fluorescence is used as a measure of the generated transcript product (i.e. enzymatic activity).
Molecule `Cc1ccccc1-c1c[nH]c(=O)c2cc(OC(C)C(F)(F)F)ccc12` (stereo not shown) [Example 61, 4-(o-tolyl)-7-((1,1,1-trifluoropropan-2-yl)oxy)isoquinolin-1(2H)-one] showed an IC50 of 400 nM.

Molecule `C[C@@H](Oc1ccc2c(-c3ccc(F)cc3Cl)c[nH]c(=O)c2c1)C(=O)N1CCC[C@H](C(=O)O)C1` [Example 62, (S)-1-((R)-2-((4-(2-chloro-4-fluorophenyl)-1-oxo-1,2-dihydroisoquinolin-7-yl)oxy)propanoyl)piperidine-3-carboxylic acid] displayed an IC50 of 60 nM.

`Cc1ccccc1-c1c[nH]c(=O)c2cc(OCC(N)=O)ccc12` [Example 63, 2-((1-oxo-4-(o-tolyl)-1,2-dihydroisoquinolin-7-yl)oxy)acetamide] yielded an IC50 of 3000 nM.

`C[C@@H](Oc1ccc2c(-c3ccc(F)cc3Cl)c[nH]c(=O)c2c1)C(=O)N1CCC(C(=O)O)CC1` [Example 64, (R)-1-(2-((4-(2-chloro-4-fluorophenyl)-1-oxo-1,2-dihydroisoquinolin-7-yl)oxy)propanoyl)piperidine-4-carboxylic acid]: the IC50 was determined as 50 nM.

The molecule `Cc1ccccc1-c1c[nH]c(=O)c2cc(OCC(F)(F)F)ccc12` [Example 65, 4-(o-tolyl)-7-(2,2,2-trifluoroethoxy)isoquinolin-1(2H)-one] yielded an IC50 of 30 nM.

On to `Cc1ccccc1-c1c[nH]c(=O)c2cc(N(C)CC(N)=O)ccc12` [Example 66, 2-(methyl(1-oxo-4-(o-tolyl)-1,2-dihydroisoquinolin-7-yl)amino)acetamide], for which inhibition was half-maximal at 5000 nM (IC50).

`Cc1ccccc1-c1c[nH]c(=O)c2cc(NC(C)C(N)=O)ccc12` (stereo not shown) [Example 67, 2-((1-oxo-4-(o-tolyl)-1,2-dihydroisoquinolin-7-yl)amino)propanamide] came in with an IC50 of 12000 nM.

The molecule `Cc1ccccc1-c1c[nH]c(=O)c2cc(NC(C)C(N)=O)ccc12` (stereo not shown) [Example 68] gave an IC50 of 11000 nM.

`Cc1ccccc1-c1c[nH]c(=O)c2cc(NC(C)C(N)=O)ccc12` (stereo not shown) [Example 69] had an IC50 of 12000 nM.

Take `Cc1ccccc1-c1c[nH]c(=O)c2cc(NCC(N)=O)ccc12` [Example 70, 2-((1-oxo-4-(o-tolyl)-1,2-dihydroisoquinolin-7-yl)amino)acetamide]: the IC50 stood at 8000 nM.

Molecule `Cc1ccccc1-c1c[nH]c(=O)c2cc(OC(C)C(N)=O)ccc12` (stereo not shown) [Example 71, 2-((1-oxo-4-(o-tolyl)-1,2-dihydroisoquinolin-7-yl)oxy)propanamide] showed an IC50 of 1000 nM.

In turn, `Cc1ccccc1-c1c[nH]c(=O)c2cc(O[C@H](C)C(=O)N3CCC[C@H](C#N)C3)ccc12` [Example 77, (S)-1-((R)-2-((1-oxo-4-(o-tolyl)-1,2-dihydroisoquinolin-7-yl)oxy)propanoyl)piperidine-3-carbonitrile] returned an IC50 of 30 nM.

For the molecule `Cc1ccccc1-c1c[nH]c(=O)c2cc(O[C@H](C)C(=O)N3CCOCC3)ccc12` [Example 78, (R)-7-((1-morpholino-1-oxopropan-2-yl)oxy)-4-(o-tolyl)isoquinolin-1(2H)-one], the IC50 turned out to be 30 nM.

`C[C@@H](Oc1ccc2c(-c3ccc(F)cc3Cl)c[nH]c(=O)c2c1)C(=O)N1CCOCC1` [Example 79, (R)-4-(2-chloro-4-fluorophenyl)-7-((1-morpholino-1-oxopropan-2-yl)oxy)isoquinolin-1(2H)-one] gave an IC50 of 50 nM.

In the case of `Cc1ccccc1-c1c[nH]c(=O)c2cc(O[C@H](C)C(=O)N3CCC(F)(F)CC3)ccc12` [Example 80, (R)-7-((1-(4,4-difluoropiperidin-1-yl)-1-oxopropan-2-yl)oxy)-4-(o-tolyl)isoquinolin-1(2H)-one], it took 40 nM to reach half-maximal inhibition (IC50).

`Cc1ccccc1-c1c[nH]c(=O)c2cc(O[C@H](C)C(=O)N3CCCC(F)(F)C3)ccc12` [Example 81, (R)-7-((1-(3,3-difluoropiperidin-1-yl)-1-oxopropan-2-yl)oxy)-4-(o-tolyl)isoquinolin-1(2H)-one] yielded an IC50 of 30 nM.

`C[C@@H](Oc1ccc2c(-c3ccc(F)cc3Cl)c[nH]c(=O)c2c1)C(=O)N1CCC[C@H](C(N)=O)C1` [Example 82, (S)-1-((R)-2-((4-(2-chloro-4-fluorophenyl)-1-oxo-1,2-dihydroisoquinolin-7-yl)oxy)propanoyl)piperidine-3-carboxamide] returned an IC50 of 90 nM.

`Cc1cc(F)ccc1-c1c[nH]c(=O)c2cc(OCC#N)ccc12` [Example 83, 2-((4-(4-fluoro-2-methylphenyl)-1-oxo-1,2-dihydroisoquinolin-7-yl)oxy)acetonitrile] registered an IC50 of 400 nM.

Turning to `C[C@@H](Oc1ccc2c(-c3ccc(F)cc3Cl)c[nH]c(=O)c2c1)C(=O)N1CCCC(F)(F)C1` [Example 84, (R)-4-(2-chloro-4-fluorophenyl)-7-((1-(3,3-difluoropiperidin-1-yl)-1-oxopropan-2-yl)oxy)isoquinolin-1(2H)-one], half-maximal inhibition (IC50) required 80 nM.

For the molecule `Cc1ccccc1-c1c[nH]c(=O)c2cc(O[C@H](C)C(=O)N3C4CCC3COC4)ccc12` [Example 85, 7-(((2R)-1-(3-oxa-8-azabicyclo[3.2.1]octan-8-yl)-1-oxopropan-2-yl)oxy)-4-(o-tolyl)isoquinolin-1(2H)-one], the IC50 is 20 nM.

`Cc1ccccc1-c1c[nH]c(=O)c2cc(O[C@H](C)C(=O)N3C4CCCC3CC4)ccc12` [Example 86, 7-(((2R)-1-(8-azabicyclo[3.2.1]octan-8-yl)-1-oxopropan-2-yl)oxy)-4-(o-tolyl)isoquinolin-1(2H)-one] yielded an IC50 of 20 nM.

In the case of `C[C@@H](Oc1ccc2c(-c3ccc(F)cc3Cl)c[nH]c(=O)c2c1)C(=O)N1CCC[C@H](C#N)C1` [Example 87, (S)-1-((R)-2-((4-(2-chloro-4-fluorophenyl)-1-oxo-1,2-dihydroisoquinolin-7-yl)oxy)propanoyl)piperidine-3-carbonitrile], the IC50 worked out at 200 nM.

`Cc1ccccc1-c1c[nH]c(=O)c2cc(O[C@H](C)C(=O)O)ccc12` [Example 88, (R)-2-((1-oxo-4-(o-tolyl)-1,2-dihydroisoquinolin-7-yl)oxy)propanoic acid] registered an IC50 of 400 nM.

In turn, `Cc1ccc(-c2c[nH]c(=O)c3cc(OCC#N)ccc23)c(Cl)c1` [Example 89, 2-((4-(2-chloro-4-methylphenyl)-1-oxo-1,2-dihydroisoquinolin-7-yl)oxy)acetonitrile] displayed an IC50 of 300 nM.

Take `C[C@@H](Oc1ccc2c(-c3ccc(F)cc3Cl)c[nH]c(=O)c2c1)C(=O)O` [Example 90, (R)-2-((4-(2-chloro-4-fluorophenyl)-1-oxo-1,2-dihydroisoquinolin-7-yl)oxy)propanoic acid]: the IC50 turned out to be 1000 nM.

`C[C@@H](Oc1ccc2c(-c3ccc(F)cc3Cl)c[nH]c(=O)c2c1)C(=O)N1CCC(F)(F)CC1` [Example 91, (R)-4-(2-chloro-4-fluorophenyl)-7-((1-(4,4-difluoropiperidin-1-yl)-1-oxopropan-2-yl)oxy)isoquinolin-1(2H)-one] registered an IC50 of 300 nM.

Turning to `C[C@@H](Oc1ccc2c(-c3ccc(F)cc3Cl)c[nH]c(=O)c2c1)C(=O)N1C2CCC1COC2` [Example 92, 7-(((2R)-1-(3-oxa-8-azabicyclo[3.2.1]octan-8-yl)-1-oxopropan-2-yl)oxy)-4-(2-chloro-4-fluorophenyl)isoquinolin-1(2H)-one], 80 nM corresponded to half-maximal inhibition (IC50).

`C[C@@H](Oc1ccc2c(-c3ccc(F)cc3Cl)c[nH]c(=O)c2c1)C(=O)N1C2CCCC1CC2` [Example 93, 7-(((2R)-1-(8-azabicyclo[3.2.1]octan-8-yl)-1-oxopropan-2-yl)oxy)-4-(2-chloro-4-fluorophenyl)isoquinolin-1(2H)-one] displayed an IC50 of 30 nM.
